From patent publication US7521454B2 (Dainippon Sumitomo Pharma Co., Ltd., priority 2001, dated 2009)
In brackets after ≈: the same amount, converted by molar mass.

What was measured:
[1] = tested on: mouse spleen cell; assay: cells; assay type: cell-based; settings: Mus musculus, 24 h, read-out: Interferon-inducing activity: Minimum effective concentration
[2] = tested on: Balb/c male mouse; assay: Interferon-inducing activity in mouse (in vivo), serum interferon titer after oral dosing; settings: serum 2 h after dosing, Balb/c mouse
[3] = tested on: human peripheral blood mononuclear cells (PBMC); assay: Interferon-inducing activity in human peripheral blood mononuclear cells (PBMC), IFN-α ELISA; assay type: cell-based; settings: 24 h;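 note: IFN-α in pg/ml with a 1.25 pg/ml detection limit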
Experimental: Peripheral bloods were sampled from 5 healthy volunteers using a syringe containing heparin, and peripheral blood mononuclear cells (PBMC) were prepared by density gradient centrifugation utilizing the Lymphoprep™ (NYCOMED PHARMA AS). PBMCs were washed twice in serum-free RPMI 1640 medium and adjusted at 1×10^6 cells/ml in RPMI 1640 medium comprising 10% fetal bovine serum. The product was cultured in the presence of a test compound dissolved in dimethyl sulfoxide (final concentration: 0.1%) in an incubator in the presence of 5% CO^2 at 37° C. for 24 hours. As a control, 0.1% dimethyl sulfoxide containing no test compound was used. The culture supernatant was aseptically collected by filtration. Thereafter, the supernatant was cryopreserved at −20° C. or lower until it was subjected to the assay for IFN-inducing activity. Human IFN-α in the culture supernatant was quantified using a highly sensitive ELISA system (Amersham).

[4] = tested on: IL-4 production; assay: Inhibitory activity against Th2 cytokine produced from sensitized spleen cells: IL-4; assay type: cell-based, mouse; settings: Mus musculus, 72 h, OVA-sensitized BALB/c spleen cells, 3 days, read-out: Inhibitory activity against IL-4 production
Method in brief: (§1)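 BALB/c mice immunized i.p. with 10 μg ovalbumin on alum, boosted at day 14; spleen cells taken 7 days later. Cells (5×10^6/well) restimulated with ovalbumin 0.5 mg/ml plus test compound, cultured 3 days at 37° C, 5% CO2. Supernatant cytokine quantified by ELISA.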

[5] = tested on: IL-5 production; assay: Inhibitory activity against Th2 cytokine produced from sensitized spleen cells: IL-5; assay type: cell-based, mouse; settings: Mus musculus, 72 h, OVA-sensitized BALB/c spleen cells, 3 days, read-out: Inhibitory activity against IL-5 production
Method in brief: as §1

[6] = Gastrointestinal absorption in rat (drug level in blood by HPLC); assay type: in vivo; settings: blood, dose 3 mg/kg oral, SD male rat
Experimental: A test compound was suspended in an aqueous solution of 0.5% carboxymethylcellulose, and the resulting suspension was orally administered to an SD male rat. Blood was sampled with the elapse of time, and the level of the drug in blood was assayed by HPLC.

[7] = tested on: rat model of eosinophil leukocytic infiltration; assay: Rat model of eosinophil leukocytic infiltration (OVA, bronchoalveolar lavage); assay type: in vivo; settings: 2.5 hours before induction, lavage 24 hours after
Experimental: A rat was immunized intraperitoneally with 1 ml of a solution containing 1 mg of ovalbumin (OVA) and 100 mg of Al(OH)3 on day 0 and day 7. On day 14, a 1% OVA solution was sprayed for 15 minutes using a ultrasonic nebulizer to induce reactions. A test compound was administered intratracheally 2.5 hours before the induction. Bronchoalveolar lavage was performed 24 hours after the induction, and eosinocytes in the wash was stained with Hinkelman to count the number of stained cells. Sensi.−/Challe.+, CMC-Na, and Fluticasone were used as controls. FIG. 1 and the following table show the results.

[8] = tested on: Renca cells; assay: Antitumor effect in tumor-bearing mouse model (Renca); assay type: in vivo; settings: Renca in BALB/c mice, 5 times every 4 days
Experimental: Murine renal adenocarcinoma-derived Renca cells (obtained from Iwate Medical University) were intradermally transplanted to the left ventral portions of 6-week-old BALB/c male mice (Charles River Japan, Inc.) at 5×10^4 cells/0.05 ml/mouse. Their body weights were measured on the next day, and they were divided into 5 groups (each group comprising 6 mice) in such a manner that the average body weights were substantially the same among groups. Vehicles (an aqueous solution of 0.5% carboxymethylcellulose (hereinafter referred to as “CMC-Na”)) and the compound of Example 27 (1 mg/kg and 3 mg/kg) were forcibly administered orally using an oral Sonde (10 ml/kg). Mouse interferon a (hereinafter referred to as “mIFN-α”) was intradermally administered to mice through their backs in amounts of 1×10^4 U/0.1 ml and 5×10^4 U/0.1 ml per mouse. Administration was carried out 5 times every 4 days. The longer diameter (L, mm) and the shorter diameter (W, mm) of the generated tumors were measured twice a week, and the tumor volumes (V, mm^3) were calculated (V=L×W^2). Also, significant difference was examined in accordance with Steel's multiple comparison. […]
A surveillance period of about 30 days after the transplantation was provided, the tumor volume and the body weight were monitored, and an antitumor effect against the Renca cells was evaluated. […]

[9] = Solubility in citric acid/disodium phosphate buffers; settings: thermodynamic from solid
Experimental: 5.53% citric acid (monohydrate) and 1.75% disodium phosphate (anhydrous) were mixed together to prepare buffers (pH 2.5, 5.5, 7.4). A compound was added thereto, the mixture was stirred in a vortex mixer and subjected to ultrasonication for 30 minutes. Thereafter, the resultant was stirred in a vortex mixer again and then centrifuged at 15,000 rpm for 20 minutes. The levels of the compounds in the supernatants were then quantified by HPLC.

[10] = tested on: male cynomolgus monkeys; assay: Interferon-inducing activity in cynomolgus monkey (in vivo), serum interferon titer and vomition; settings: cynomolgus monkey, in vivo

CCCCNc1nc(N)c2nc(O)n(Cc3ccc(C)nc3)c2n1 [Example 27, 2-Butylamino-8-hydroxy-9-(6-methyl-3-pyridylmethyl)adenine]
minimal effective concentration [1]: 0.003 µM | Interferon-inducing activity ([2]; dosage 0.03 mg/kg oral): 14 ± 3 U/ml | Interferon-inducing activity ([2]; dosage 0.1 mg/kg oral): 324 ± 66 U/ml | Interferon-inducing activity ([2]; dosage 0.3 mg/kg oral): 804 ± 274 U/ml | Interferon-inducing activity (human IFN-α in culture supernatant) ([3]; concentration 1 nM): 6 ± 3 pg/mL | Interferon-inducing activity (human IFN-α in culture supernatant) ([3]; concentration 3 nM): 26 ± 22 pg/mL | Interferon-inducing activity (human IFN-α in culture supernatant) ([3]; concentration 10 nM): 56 ± 37 pg/mL | Interferon-inducing activity (human IFN-α in culture supernatant) ([3]; concentration 30 nM): 59 ± 33 pg/mL | activity at 0.001 µM ([4]; concentration 1 nM): 30% | activity at 0.01 µM ([4]; concentration 10 nM): 1% | activity at 0.1 µM ([4]; concentration 100 nM): < 1% | activity at 0.001 µM ([5]; concentration 1 nM): 68% | activity at 0.01 µM ([5]; concentration 10 nM): 20% | activity at 0.1 µM ([5]; concentration 100 nM): 12% | Cmax ([6]; read-out: Cmax): 565 ng/mL | Tmax ([6]; read-out: Tmax): 30 min | eosinocytes in bronchoalveolar lavage, Average ([7]; 0.001 mg/kg intratracheal): 383.85 ×10^4 cells | eosinocytes in bronchoalveolar lavage, Average ([7]; 0.01 mg/kg intratracheal): 186.77 ×10^4 cells | eosinocytes in bronchoalveolar lavage, Average ([7]; 0.1 mg/kg intratracheal): 46.84 ×10^4 cells | antitumor effect compared with mIFN-α ([8]; 1 and 3 mg/kg oral): equivalent to or higher than that attained by the administration of mIFN-α | tumor volume compared with the vehicle group ([8]; Example 27 1 and 3 mg/kg oral, mIFN-α 1×10^4 and 5×10^4 U intradermal, P<0.05): significantly smaller | solubility at 30 min ([9]; pH 2.5, aqueous buffer): 610 µg/mL (≈ 1860 µM) | solubility at 30 min ([9]; pH 5.5, aqueous buffer): 5 µg/mL (≈ 15.3 µM) | solubility at 30 min ([9]; pH 7.4, aqueous buffer): 2 µg/mL (≈ 6.11 µM) | interferon titer in blood serum (average±SE) [10]: 14,488±6365 U/ml
